Assay [1] relates to Hedgehog Signaling Pathway. Kind of assay: SAG-induced differentiation of C3H10T1/2 cells into osteoblastic cells, intracellular alkaline phosphatase activity. The class given is cell-based, mouse. Particulars: Mus musculus, C3H 10T1/2, 120 h, 1 μM SAG, 5 days, alkaline phosphatase activity (OD405), read-out: IC50 values of compounds that inhibit Hh pathway. The source says: The Application of SAG to Induce Pluripotent Mesenchymal Mouse Embryonic Cell C3H/10T1/2 to Differentiate into Osteoblastic Cells for the Determination of the Inhibitory Activity of N-(3-(1H-benzo[d]imidazol-2-yl)-4-chlorophenyl)-2-methyl-4-((2S,6R)-2,6-dimethylmorpholino)benzamide and Analogs on Hedgehog Signaling Pathway
The intracellular alkaline phosphatase activity is a reliable indication of the differentiation process. Therefore this enzymatic activity can be used to monitor the activity of hedgehog pathway inhibitors.
The C3H10T1/2 cells were grown in DMEM medium supplemented with 10% fetal bovine serum (FBS, Hyclone) at 37° C. with 5% CO2. 10000 cells were sown to each well of a 96-well microplate a day before the experiment and grown overnight. At the day of experiment, the inducing medium and inhibitor solutions were prepared as follows: the reference compound and testing compounds were serially diluted 1 to 3 and 1 to 10 in DMSO to seven concentrations with the eighth concentration being DMSO. A 10-fold dilution was prepared by mixing 10 μL of the DMSO dilution with 90 μL of fresh growing medium. […] Pre-sown cells were taken out from incubator and the medium was removed. To each well, 180 μL inducing medium was added and followed immediately with 20 μL of testing or reference compound dilutions. The testing compound concentrations are between 10 μM and 1 nM. The cells were then return to CO2 incubator to grow additional 5 days at 37° C.
(§1) After incubating for 5 days, the cells were taken out and intracellular alkaline phosphatase activity was tested. The alkaline phosphatase activity was measured as follows:
1) Preparation of Substrate Solution:
(§2) Solution A: A 0.5 mM MgCl2 (Sigma Prod. No. M-0250) solution was prepared.
(§3) After the pH value was adjusted to 9.8 with 5 M HCl at 37° C., the total volume was adjusted to 100 mL.
(§4) After it is completely dissolved the total volume was adjusted to 10 mL with the final concentration being 1 mM.
Substrate reaction medium: To 10 mL of solution B, 250 μL of solution A and 200 μL of solution C were added, and mixed well.
2) the Measurement of Intracellular Alkaline Phosphatase Activity:
(§5) After taking out the cells from the incubator, the cell culture medium was removed and cells were washed twice with PBS. 20 μL of lysis solution (0.2% Triton solution) was added to each well. After being shaken for 30 min at room temperature, each well of cells received 80 μL of substrate reaction medium. The microplate was placed immediately into a VariSkan Flashplate reader and absorbance at OD405 was read as background reading. The plate was replaced back to cell culture incubator at 37° C. for additional 30 min and the absorbance was read again using VariSkan Flash plate reader at OD405.
The data were analyzed by subtracting the background reading from the reading at 30 min, and the obtained numbers were plotted and analyzed with Prism 5 software (GraphPad). The phosphatase activity (calculated OD405) was plotted against the log concentration of testing compound, and the obtained plot was fitted with non-linear curve fitting equation to calculate IC50 values. The curve fitting equation is Y=Bottom+(Top−Bottom)/(1+10^((X−Log IC50))). X is the logarithm of concentration. Y is the measure of alkaline phosphatase activity (OD405).
(§6) The calculated IC50 value is a measurement of the inhibitory activity of compound to Hh pathway.

Assay [2] concerns Hedgehog Signaling Pathway. Kind of assay: SHH-induced differentiation of C3H10T1/2 cells into osteoblastic cells, intracellular alkaline phosphatase activity. Format: cell-based, mouse. Particulars: Mus musculus, C3H 10T1/2, 120 h, 10 nM SHH-N, 5 days, alkaline phosphatase activity (OD405), read-out: IC50 values of compounds that inhibit Hh pathway. How it is done:
The Application of SHH to Induce Pluripotent Mesenchymal Mouse Embryonic Cell C3H10T1/2 to Differentiate into Osteoblastic Cells for the Determination of the Inhibitory Activity of N-(3-(1H-benzo[d]imidazol-2-yl)-4-chlorophenyl)-2-methyl-4-((2S,6R)-2,6-dimethylmorpholino)benzamide and Analogs on Hedgehog Signaling Pathway
The C3H10T1/2 cells were grown in DMEM medium supplemented with 10% fetal bovine serum (FBS, Hyclone) at 37° C. with 5% CO2. 10000 cells were sown to each well of a 96-well microplate a day before the experiment and grown overnight. […] The reference compound and testing compounds were serially diluted 1 to 3 and 1 to 10 in DMSO to seven concentrations with the eighth concentration being DMSO. A 10-fold dilution was prepared by mixing 10 μL of the DMSO dilutions with 90 μL of fresh growing medium. Pre-sown cells were taken out from incubator and the medium was removed. To each well, 180 μL of inducing medium containing 10 nM of SHH-N was added and followed immediately with 20 μL of 10× testing or reference compound dilutions. The testing compound concentrations are between 10 μM and 10 nM. The cells were then returned to CO2 incubator to grow additional 5 days at 37° C.
as §1
3) Preparation of Substrate Solution:
as §2, §3, §4
Substrate reaction medium: to 10 mL of solution B, 250 μL of solution A and 200 μL of solution C were added, and mixed well.
4) The Measurement of Intracellular Alkaline Phosphatase Activity:
as §5
The data were analyzed by subtracting the background reading from the reading at 30 min, and the obtained numbers were plotted and analyzed with Prism 5 software (GraphPad). The phosphatase activity (calculated OD405) was plotted against the log concentration of testing compound, and the obtained plot was fitted with non-linear curve fitting equation to calculate IC50 values. The curve fitting equation is Y=Bottom+(Top−Bottom)/(1+10^(X−Log IC50)). X is the logarithm of concentration. Y is the measure of alkaline phosphatase activity (OD405).
as §6

The IC50 is the concentration that inhibits the measured activity by half.

On to `Cc1cc(-c2ccccc2)ccc1C(=O)Nc1ccc(Cl)c(-c2nc3ccccc3[nH]2)c1` [Example 2, N-(3-(1H-benzo[d]imidazol-2-yl)-4-chlorophenyl)-3-methylbiphenyl-4-carboxamide], for which the IC50 in assay [1] is 74 nM; in assay [2], 14 nM.
Turning to `COc1ccc(-c2ccc(C(=O)Nc3ccc(Cl)c(-c4nc5ccccc5[nH]4)c3)c(C)c2)cc1` [Example 3, N-(3-(1H-benzo[d]imidazol-2-yl)-4-chlorophenyl)-3-methyl-4′-methoxybiphenyl-4-carboxamide], the IC50 stood at 111 nM in assay [1] and 39 nM in assay [2].
For `Cc1cc(-c2ccc(F)cc2)ccc1C(=O)Nc1ccc(Cl)c(-c2nc3ccccc3[nH]2)c1` [Example 4, N-(3-(1H-benzo[d]imidazol-2-yl)-4-chlorophenyl)-3-methyl-4′-fluorobiphenyl-4-carboxamide], the IC50 in assay [1] was determined as 86 nM; in assay [2] it was 7.8 nM.
With `Cc1cc(-c2ccc(S(C)(=O)=O)cc2)ccc1C(=O)Nc1ccc(Cl)c(-c2nc3ccccc3[nH]2)c1` [Example 5, N-(3-(1H-benzo[d]imidazol-2-yl)-4-chlorophenyl)-3-methyl-4′-(methylsulfonyl)biphenyl-4-carboxamide], the results for the IC50 in assay [1] and in assay [2] were 26 nM and 5.9 nM, respectively.
For `CC(=O)c1ccc(-c2ccc(C(=O)Nc3ccc(Cl)c(-c4nc5ccccc5[nH]4)c3)c(C)c2)cc1` [Example 9, N-(3-(1H-benzo[d]imidazol-2-yl)-4-chlorophenyl)-3-methyl-4′-acetylbiphenyl-4-carboxamide] the same measures were 156 nM and 43 nM.
Take `Cc1cc(-c2cccc(F)c2)ccc1C(=O)Nc1ccc(Cl)c(-c2nc3ccccc3[nH]2)c1` [Example 10, N-(3-(1H-benzo[d]imidazol-2-yl)-4-chlorophenyl)-3-methyl-3′-fluorobiphenyl-4-carboxamide]: the IC50 in assay [1] amounted to 74 nM; in assay [2], 6.3 nM.
For `Cc1cc(-c2cccc(C#N)c2)ccc1C(=O)Nc1ccc(Cl)c(-c2nc3ccccc3[nH]2)c1` [Example 11, N-(3-(1H-benzo[d]imidazol-2-yl)-4-chlorophenyl)-3-methyl-3′-cyanobiphenyl-4-carboxamide], the IC50 in assay [1] stood at 31 nM; in assay [2], 1.7 nM.
In the same order, the values of `O=C(Nc1ccc(Cl)c(-c2nc3ccccc3[nH]2)c1)c1ccc(-c2ccc(F)cc2)cc1` [Example 12, N-(3-(1H-benzo[d]imidazol-2-yl)-4-chlorophenyl)-4′-fluorobiphenyl-4-carboxamide] are 153 nM and 18 nM.
Take `O=C(Nc1ccc(Cl)c(-c2nc3ccccc3[nH]2)c1)c1ccc(-c2cccc(F)c2)cc1` [Example 13, N-(3-(1H-benzo[d]imidazol-2-yl)-4-chlorophenyl)-3′-fluorobiphenyl-4-carboxamide]: the IC50 came to 86 nM in assay [1] and 14.6 nM in assay [2].
In the same order, the values of `COc1cc(-c2ccc(C(F)(F)F)cc2)ccc1C(=O)Nc1ccc(Cl)c(-c2nc3ccccc3[nH]2)c1` [Example 15, N-(3-(1H-benzo[d]imidazol-2-yl)-4-chlorophenyl)-3-methoxy-4′-(trifluoromethyl)biphenyl-4-carboxamide] are over 10000 nM and 40 nM.
Turning to `O=C(Nc1ccc(Cl)c(-c2nc3ccccc3[nH]2)c1)c1ccc(-c2ccc(C(F)(F)F)cc2)cc1O` [Example 16, N-(3-(1H-benzo[d]imidazol-2-yl)-4-chlorophenyl)-3-hydroxy-4′-(trifluoromethyl)biphenyl-4-carboxamide], the IC50 in assay [1] and in assay [2] was over 10000 nM each time.
As for `O=C(Nc1ccc(Cl)c(-c2nc3ccccc3[nH]2)c1)c1ccc(-c2ccc(C(F)(F)F)cc2)cc1F` [Example 17, N-(3-(1H-benzo[d]imidazol-2-yl)-4-chlorophenyl)-3-fluoro-4′-(trifluoromethyl)biphenyl-4-carboxamide], the IC50 in assay [1] turned out to be 81 nM; in assay [2] it was 15 nM.
In the same order, the values of `O=C(Nc1ccc(Cl)c(-c2nc3ccccc3[nH]2)c1)c1ccc(-c2ccc(C(F)(F)F)cc2)cc1[N+](=O)[O-]` [Example 19, N-(3-(1H-benzo[d]imidazol-2-yl)-4-chlorophenyl)-3-nitro-4′-(trifluoromethyl)biphenyl-4-carboxamide] are 161 nM and 23 nM.
In the case of `Cc1cc(-c2ccc(C(F)(F)F)cc2)cc(C)c1C(=O)Nc1ccc(Cl)c(-c2nc3ccccc3[nH]2)c1` [Example 20, N-(3-(1H-benzo[d]imidazol-2-yl)-4-chlorophenyl)-3,5-dimethyl-4′-(trifluoromethyl)biphenyl-4-carboxamide], the IC50 in assay [1] is over 10000 nM; in assay [2], 59 nM.
Regarding `O=C(Nc1ccc(Cl)c(-c2nc3ccccc3[nH]2)c1)c1ccc(-c2ccccc2)cc1` [Example 23, N-(3-(1H-benzo[d]imidazol-2-yl)-4-chlorophenyl) biphenyl-4-carboxamide], the IC50 worked out at 163 nM in assay [1] and 24 nM in assay [2].
For `Cc1cc(-c2ccc(N)cc2)ccc1C(=O)Nc1ccc(Cl)c(-c2nc3ccccc3[nH]2)c1` [Example 24, N-(3-(1H-benzo[d]imidazol-2-yl)-4-chlorophenyl)-3-methyl-4′-aminobiphenyl-4-carboxamide] the same measures were 255 nM and 62 nM.
In the same order, the values of `O=c1[nH]c2cc(-c3ccc(C(F)(F)F)cc3)ccc2c(=O)n1-c1ccc(Cl)c(-c2nc3ccccc3[nH]2)c1` [Example 26, 3-(3-(1H-benzo[d]imidazol-2-yl)-4-chlorophenyl)-7-(4-(trifluoromethyl)phenyl)quinazoline-2,4(1H,3H)-dione] are over 10000 nM and over 10000 nM.
For `O=c1c2ccc(-c3ccc(C(F)(F)F)cc3)cc2ncn1-c1ccc(Cl)c(-c2nc3ccccc3[nH]2)c1` [Example 27, 3-(3-(1H-benzo[d]imidazol-2-yl)-4-chlorophenyl)-7-(4-(trifluoromethyl)phenyl)quinazolin-4(3H)-one], the results for the IC50 in assay [1] and in assay [2] were 151 nM and 57 nM, respectively.
Consider `O=C1c2ccc(-c3ccc(C(F)(F)F)cc3)cc2OCN1c1ccc(Cl)c(-c2nc3ccccc3[nH]2)c1` [Example 28, 3-(3-(1H-benzo[d]imidazol-2-yl)-4-chlorophenyl)-7-(4-(trifluoromethyl)phenyl)-2H-benzo[e][1,3]oxazin-4(3H)-one], for which the figures for the IC50 in assay [1] and in assay [2] were 228 nM and 59 nM, respectively.

The values above are taken from US10676468B2, “N-(3-heteroarylaryl)-4-arylarylcarboxamides and analogs as hedgehog pathway inhibitors and use thereof” (IMPACT Therapeutics, Inc., priority 2012, dated 2020).
